Here are results for 29 molecules from patent US12459921B2, “Isoindoline compound, preparation method, pharmaceutical composition and use thereof” (SHANGHAI INSTITUTE OF MATERIA MEDICA, CHINESE ACADEMY OF …, priority 2018, dated 2025).

pIC50: −log10 of the molar value.

This test has as its system MM.1S cells. The test is described as follows: Inhibitory effect on the proliferation of MM.1S, MTS cell viability test. The format is cell-based. To be noted: Homo sapiens, MM1.S, 168 h, multiple myeloma MM.1S cells, 7 days incubation, read-out: Tumor cell inhibitory activity. The procedure:
Method of tumor cell proliferation inhibition test: the inventors tested all the example compounds on hematologic tumor cells, multiple myeloma MMTs cell line and acute leukemia cell MV-4-11 cell line of some examples. The activity test method and results are as follows.
1. The Compound's Inhibitory Effect on the Proliferation of MM.1S, MTS Cell Viability Test:
MM.1S cells were cultured and collected with 1640 plus 10% fetal bovine serum. The cell concentration was diluted according to 7 days, and 180 ul cell suspension was added to each well of the 96-well cell plate to 20,000 cells. 20 ul of DMSO with a final concentration of 0.2% was added to the control wells. The compound was 5-fold diluted—from the 10 mM stock solution, and 20 ul was also added to each compound cell well (the final concentration of DMSO was 0.2%). The cells were placed in a 37° C., 5% CO2 incubator to incubate for 7 days. After the reaction solution was prepared according to the MTS kit (Promega, G5430), 20 μL was added to each well and incubated in a 37° C., 5% CO2 incubator for 3-4 h. Absorbance value at 490 nm was read with a microtiter plate, and 690 nm absorbance value was used as the background value. OD490-OD690 was used as the final initial data. The formula for calculating the inhibition rate of the compound is: inhibition rate=(ODDMSO-ODcompound)/(ODDMSO-Oblank)×100%. The compound's proliferation inhibition IC50 was fitted by Graph Pad Prism 5.0. The experiment was repeated three times, and the average and standard deviation was calculated according to the three parallel experiments.
Cell viability test results: **** represents cell viability IC50>20 μM, […] represents cell viability 1 μM<IC50<20 μM, ** represents cell viability 100 nM<IC50<1 μM, * represents cell viability IC50<100 nM.
In general terms: Formazan colour is commonly taken as a measure of viable cells.
With `CC(=O)N[C@@H](CCCc1cccc2c1CN(C1CCC(=O)NC1=O)C2=O)c1nc2cccc(Br)c2[nH]1` (stereo partly drawn) [Example 197, N-((1S)-1-(7-bromo-1H-benzo[d]imidazole-2-)-4-(2-(2,6-dioxopiperidine-3-)-1-oxoisoindoline-4-)butyl)acetamide], the pIC50 was 6.00 to 7.00.
Then `N#CC1(c2ccc(Cl)cc2)CCN(C(=O)CCCOc2cccc3c2CN(C2CCC(=O)NC2=O)C3=O)CC1` (centres unmarked) [Example 84, 4-(4-chlorophenyl)-1-(4-((2-(2,6-dioxopiperidine-3-)-1-oxoisoindoline-4-)oxy)butyryl)piperidine-4-carbonitrile], with 6.00 to 7.00.
For the molecule `O=C1CCC(N2Cc3c(OCCCOc4ccnc5ccccc45)cccc3C2=O)C(=O)N1` (centres unmarked) [Example 4, 3-(1-oxo-4-(3-(quinoline-4-oxy)propoxy)isoindoline-2-)piperidine-2,6-dione], the pIC50 is 4.70 to 6.00.
Under `O=C1CCC(N2Cc3c(CCCCCN4CCC5(CC4)OCCc4ccccc45)cccc3C2=O)C(=O)N1` (centres unmarked) [Example 137, 3-(1-oxo-4-(5-(spiro[isochroman-1,4′-piperidine]-1′-)pentyl)isoindoline-2-)piperidine-2,6-dione] stands 6.00 to 7.00.
Regarding `COc1ccc(C2(C#N)CCN(CCCCc3cccc4c3CN(C3CCC(=O)NC3=O)C4=O)CC2)c(OC)c1OC` (centres unmarked) [Example 253, 1-(4-(2-(2,6-dioxopiperidin-3-yl)-1-oxoisoindolin-4-yl)butyl)-4-(2,3,4-trimethoxyphenyl)piperidine-4-carbonitrile], the pIC50 was 4.70 to 6.00.
As for `O=C1CCC(N2Cc3c(CCCCCOc4ccnc5ccccc45)cccc3C2=O)C(=O)N1` (centres unmarked) [Example 1, 3-(1-oxo-4-(5-(quinoline-4-oxy)pentyl)isoindoline-2-)piperidine-2,6-dione], the pIC50 is more than 7.00.
For the molecule `Cc1ccc(NC(=O)[C@H](CCCc2cccc3c2CN(C2CCC(=O)NC2=O)C3=O)NC(=O)CCCCCN)cc1Cl` (stereo partly drawn) [Example 189, 6-amino-N-((2S)-1-((3-chloro-4-methylphenyl)amino)-5-(2-(2,6-dioxopiperidine-3-)-1-oxoisoindoline-4-)-1-oxopentyl-2-)hexanamide], the pIC50 was 6.00 to 7.00.
Under `N#CC1(c2cc(Cl)ccc2Cl)CCN(CCCCc2cccc3c2CN(C2CCC(=O)NC2=O)C3=O)CC1` (centres unmarked) [Example 269, 4-(2,5-dichlorophenyl)-1-(4-(2-(2,6-dioxopiperidin-3-yl)-1-oxoisoindoline-4-yl)butyl)piperidine-4-carbonitrile] stands 6.00 to 7.00; under `[2H]c1c([2H])c([2H])c(N2CCN(CCCCCc3cccc4c3CN(C3CCC(=O)NC3=O)C4=O)CC2)c([2H])c1[2H]` (centres unmarked) [Example 210], 6.00 to 7.00; under `Cc1ccc2c(c1)C1(CCN(CCCCCOc3cccc4c3CN(C3CCC(=O)NC3=O)C4=O)CC1)OC2` (centres unmarked) [Example 146, 3-(4-((5-(6-methyl-3H-spiro[isobenzofuran-1,4′-piperidine]-1′-)pentyl)oxy)-1-oxoisoindoline-2-)piperidine-2,6-dione], more than 7.00.
Then `O=C1CCC(N2Cc3c(OCCCC(=O)N4CCc5ccccc54)cccc3C2=O)C(=O)N1` (centres unmarked) [Example 116, 3-(4-(4-(indoline-1-)-4-oxobutoxy)-1-oxoisoindoline-2-)piperidine-2,6-dione], with more than 7.00.
Then `N#CC1(c2cccc(Cl)c2)CCN(CCCCCOc2cccc3c2CN(C2CCC(=O)NC2=O)C3=O)CC1` (centres unmarked) [Example 79, 4-(3-chlorophenyl)-1-(5-((2-(2,6-dioxopiperidine-3-)-1-oxoisoindoline-4-)oxy)pentyl)piperidine-4-carbonitrile], with more than 7.00; and `[2H]c1c([2H])c([2H])c(N2CCN(CCCCc3cccc4c3CN(C3CCC(=O)NC3=O)C4=O)CC2)c([2H])c1[2H]` (centres unmarked) [Example 208, 3-(1-oxo-4-(4-(4-(phenyl-d5)piperazine-1-)butyl)isoindoline-2-)piperidine-2,6-dione], with 6.00 to 7.00; and `N#CC1(c2ccccc2OC(F)(F)F)CCN(C(=O)CCCOc2cccc3c2CN(C2CCC(=O)NC2=O)C3=O)CC1` (centres unmarked) [Example 90, 1-(4-((2-(2,6-dioxopiperidine-3-)-1-oxoisoindoline-4-)-oxy-)butyryl)-4-(2-trifluoromethoxyphenyl)piperidine-4-carbonitrile], with 4.70 to 6.00.
On to `Cc1ccc2c(c1)C1(CCN(CCCCOc3cccc4c3CN(C3CCC(=O)NC3=O)C4=O)CC1)OC2` (centres unmarked) [Example 130, 3-(4-(4-(6-methyl-3H-spiro[isobenzofuran-1,4′-piperidine]-1′-)butoxy)-1-oxoisoindoline-2-)piperidine-2,6-dione], for which the pIC50 was more than 7.00.
Then `Cc1ccc2nc(C(F)(F)F)cc(OCCCCCc3cccc4c3CN(C3CCC(=O)NC3=O)C4=O)c2c1` (centres unmarked) [Example 7, 3-(4-(5-((6-methyl-2-(trifluoromethyl)quinoline-4-)oxy)pentyl)-1-oxoisoindoline-2-)piperidine-2,6-dione], with 6.00 to 7.00; and `N#CC1(c2ccccc2Cl)CCN(C(=O)CCCOc2cccc3c2CN(C2CCC(=O)NC2=O)C3=O)CC1` (centres unmarked) [Example 82, 4-(2-chlorophenyl)-1-(4-((2-(2,6-dioxopiperidine-3-)-1-oxoisoindoline-4-)oxy)butyryl)piperidine-4-carbonitrile], with 6.00 to 7.00; and `CC(=O)N[C@@H](CCCc1cccc2c1CN(C1CCC(=O)NC1=O)C2=O)c1nc2ccncc2[nH]1` (stereo partly drawn) [Example 205, N-((1S)-4-(2-(2,6-dioxopiperidine-3-)-1-oxoisoindoline-4-)-1-(3H-imidazole[4,5-c]pyridine-2-)butyl)acetamide], with less than 4.70.
Then `O=C1CCC(N2Cc3c(OCCCC(=O)N4CCC5(CC4)OCc4ccc(Cl)cc45)cccc3C2=O)C(=O)N1` (centres unmarked) [Example 153], with 6.00 to 7.00; and `CC(=O)N[C@@H](CCCc1cccc2c1CN(C1CCC(=O)NC1=O)C2=O)C(=O)N1CCC2(CC1)OCc1ccccc12` (stereo partly drawn) [Example 207, N-((2S)-5-(2-(2,6-dioxopiperidine-3-)-1-oxoisoindoline-4-)-1-oxo-1-(3H-spiro[isobenzofuran-1,4′-piperidine]-1′-)pentyl-2-)acetamide], with 6.00 to 7.00; and `O=C1CCC(N2Cc3c(CCCCCN4CCC(c5ccccc5)CC4)cccc3C2=O)C(=O)N1` (centres unmarked) [Example 20, 3-(1-oxo-4-(5-(4-phenylpiperidine-1-)pentyl)indoline-2-)piperidine-2,6-dione], with less than 4.70.
Under `O=C1CCC(N2Cc3c(CCCCN4CCN(c5ccc([N+](=O)[O-])cc5)CC4)cccc3C2=O)C(=O)N1` (centres unmarked) [Example 42, 3-(4-(4-(4-(4-nitrophenyl)piperazine-1-)butyl)-1-oxoisoindoline-2-)piperidine-2,6-dione] stands more than 7.00.
`O=C1CCC(N2Cc3c(OCCCCC(=O)N4CCN(c5cccc(Cl)c5Cl)CC4)cccc3C2=O)C(=O)N1` (centres unmarked) [Example 31, 3-(4-((5-(4-(2,3-dichlorophenyl)piperazine-1-)-5-oxopentyl)oxy)-1-oxopentyl-2-)piperidine-2,6-dione]: the pIC50 is more than 7.00.
Under `O=C1CCC(N2Cc3c(OCCCCN4CCN(c5noc6ccccc56)CC4)cccc3C2=O)C(=O)N1` (centres unmarked) [Example 242, 3-(4-(4-(4-(benzisoxazole-3-yl)piperazine-1-yl)butoxy)-1-oxoisoindoline-2-yl)piperidine-2,6-dione] stands 4.70 to 6.00.
Then `CC(=O)N[C@@H](CCCc1cccc2c1CN(C1CCC(=O)NC1=O)C2=O)C(=O)NCc1ccc(F)cc1F` (stereo partly drawn) [Example 178, (2S)-2-acetylamino-N-(2,4-difluorobenzyl)-5-(2-(2,6-dioxopiperidine-3-)-1-oxoisoindoline-4-)oxoisoindoline], with 6.00 to 7.00.
Under `O=C1CCC(N2Cc3c(CCCCN4CCN(c5cccc(Cl)c5)CC4)cccc3C2=O)C(=O)N1` (centres unmarked) [Example 37, 3-(4-(4-(4-(3-chlorophenyl)piperazine-1-)butyl)-1-oxoisoindoline-2-)piperidine-2,6-dione] stands more than 7.00; under `O=C1CCC(N2Cc3c(CCCCCN4CCOc5ccccc54)cccc3C2=O)C(=O)N1` (centres unmarked) [Example 105, 3-(4-(5-(2,3-dihydro-4H-benzo[b][1,4]oxazine-4-)pentyl)-1-oxoisoindoline-2-)piperidine-2,6-dione], 6.00 to 7.00; under `O=C1CCC(N2Cc3c(CCCCCN4CCN(c5noc6ccccc56)CC4)cccc3C2=O)C(=O)N1` (centres unmarked) [Example 231, 3-(4-(5-(4-(benzisoxazole-3-yl)piperazin-1-yl)pentyl)-1-oxoisoindoline-2-yl) piperidine-2,6-dione], 4.70 to 6.00.
As for `Cc1ccc(NC(=O)[C@H](CCCc2cccc3c2CN(C2CCC(=O)NC2=O)C3=O)NC(=O)C(C)C)cc1Cl` (stereo partly drawn) [Example 183, (2S)—N-(3-chloro-4-methylphenyl)-5-(2-(2,6-dioxopiperidine-3-)-1-oxoisoindoline-4-)-2-isobutyrylaminopentanamide], the pIC50 is more than 7.00.
